Measured values reported in patent US5475028A (Zaidan Hojin Seisan Kaihatsu Kagaku Kenkyusho, priority 1992, dated 1995).

How the values were obtained:
[1] = tested on: Liver disorder (hepatopathy) in mice; assay: Anti-hepatitis test: liver disorder (hepatopathy) in mice, carbon tetrachloride; format: in vivo, dyy-strain male mice; details: carbon tetrachloride i.p., test substance 1.0 mg/ml i.p. 3 h later, blood at 24 h, Table 1, * p < 0.05
Protocol: (1) Liver disorder (hepatopathy) in mice A group of 8 dyy-strain male mice (weighing 23 to 25 g), kept fasting from the previous day was treated by intraperitoneal injection of a 25% solution of carbon tetrachloride in olive oil at a dose of […] and thereafter allowed free access to food. Three hours after the administration of carbon tetrachloride, the mice were given a 1.0 mg/ml concentrated suspension of the test substance, as prepared in conjunction with powdered gum arabic, by intra-peritoneal injection at a dose of 0.1 ml/body weight. Twenty four hours after the administration of carbon tetrachloride, blood samples were drawn from the mice under anesthesia with ether through the abdominal descending aorta.

[2] = tested on: Isolated liver cells of rats; assay: Anti-hepatitis test: disorder of the isolated liver cells, carbon tetrachloride; format: cell-based; details: isolated rat liver cells, carbon tetrachloride vapor; test substance 0.1 mg/ml solution, 1 ml added to 2 ml; supernatant; Table 2; n = 8; * p < 0.05
Protocol: (2) Disorder of the isolated liver cells a. Carbon tetrachloride Isolated liver cells of rats were prepared by means of […] collagenase irrigation method, whereby a liver cell suspension was prepared to a concentration of 6×10^8 liver cells/mi. Into 2 ml of the suspension in an Erlenmeyer flask of a 10 ml capacity was put a test tube of about 0.5 capacity containing carbon tetrachloride to saturate the reaction system with carbon tetrachloride vapor, and after the flask was tightly stoppered, preincubation was carried out at 37° C. for 5 min. One ml of a test substance solution prepared at a concentration of 0.1 mg/ml Hunk's solution was added to the suspension of liver cells, while 1 ml of Hunk's solution was added to the control.

[3] = tested on: Isolated liver cells of rats; assay: Anti-hepatitis test: disorder of the isolated liver cells, antibody against rat liver cell membranes; format: cell-based; details: antiserum against rat liver cell membranes, test substance 0.1 mg/ml solution, 1 ml added to 2 ml, supernatant, Table 3, n = 8, * p < 0.05
Protocol: (2) Disorder of the isolated liver cells
b. Antibody against rat liver cell membranes
Isolated liver cells of rats were prepared by means of Segren's collagenase irrigation method, whereby a liver cell suspension was prepared at a concentration of 6×10^8 liver cells/mi. An Erlenmeyer flask of a 10 ml capacity in which 2 ml of the suspension had been placed was saturated with 95% oxygen, and after the flask was tightly stoppered, preincubation was carried out at 37° C. for 5 min. One ml of a test substance solution prepared at a concentration of 0.1 mg/ml Hunk's solution was added to the liver cell suspension, while 1 ml of the Hunk's solution was added to the control, followed by incubation for another 5 min, and antiserum against rat liver cell membranes (a 50-fold diluted serum) was added. A specifically determined volume of the reaction solution was pipetted out 0 and 30 min after the initiation of reaction, respectively, and immediately centrifuged under 500 g for 30 seconds, and the ALT, AST and LDH as leached out into the supernatant liquid were determined for activity by the Lippie method.

[4] = tested on: Stomach injury with hydrochloric acid/ethanol; assay: Anti-ulcer test: stomach injury with hydrochloric acid/ethanol; format: in vivo, male rats of KBL Wistar strain; details: rats; for Suppression rate: 30 min before hydrochloric acid/ethanol, ulcer length
Protocol: (1) Stomach injury with hydrochloric acid/ethanol:
Rats weighing 193 to 228 g were fasted with free access to water for 24 hours before being used in the experiment. The rats were divided into groups each consisting of 10 heads in such a way as their mean body weights were nearly uniform, treated through oral administration of hydrochloric acid/ethanol (0.15 mole hydrochloric acid solution in 80% ethanol) at a dose of 5 ml/kg body weight and sacrificed through cervical vertebrae dislocation 1 hour after administration. The stomachs were removed and treated with formalin, and individual ulcers formed in the glandula portion of the stomach were measured in length (mm), with the measured ulcer lengths being summed for each rat. The test substance was suspended in a 0.5% aqueous solution of sodium carboxymethylcellulose, and the suspension was given to the test group orally at a dose of 10 ml/kg body weight 30 min before administration of hydrochloric acid/ethanol, whereas the vehicle alone was applied to the control group.

[5] = tested on: Stomach injury through water-immersion constraint stress; assay: Anti-ulcer test: stomach injury through water-immersion constraint stress; format: in vivo, male rats of KBL Wistar strain; details: rats; for Suppression rate: 30 min before water-soaking constraint, 7 h, ulcer length, * p < 0.05
Protocol: (2) Stomach injury through water-immersion constraint stress
Rats weighing 183 to 235 g were fasted with free access to water for 24 hours before being used in the experiment. The rats were divided into groups each consisting of 10 heads in such a way as their mean body weights were nearly uniform, stress-loaded by soaking the animals as placed in a stress cage of Univ. of Tokyo type in a water tank at 23° C. up to the xiphoid and sacrificed through cervical vertebrae dislocation 7 hours later. The stomachs were removed and treated with formalin, and individual ulcers formed in the glandula portion of the stomach were measured in length (mm), with the measured ulcer lengths being summed for each rat. The test substance was suspended in a 0.5% aqueous solution of sodium carboxymethylcellulose, and the suspension was given to the test group orally at a dose of 10 ml/kg body weight 30 min before the water-soaking constraint, whereas the vehicle alone was applied to the control group.

mice = assay: Acute toxicity test; format: in vivo, Male, SLC:ICR (SPE) mice; details: oral
Protocol: Male, SLC:ICR (SPE) mice weighing 20 g, divided into groups each consisting of 5 heads, were treated by oral administration of the test compound suspended in gum arabic at doses of 1,000 mg/kg, 1,500 mg/kg and 2,500 mg/kg test compound, followed by observation for any abnormalities.

[6] = Overall anti-hepatitis, liver-function improving and anti-ulcer activities (summary of tests)

| Compound | ALT, mean ± S.D. [1] [IU] | AST, mean ± S.D. [1] [IU] | LDH, mean ± S.D. [1] [IU] | ALT, mean ± S.D. [2] [IU] | AST, mean ± S.D. [2] [IU] | ALT, mean ± S.D. [3] [IU] | AST, mean ± S.D. [3] [IU] | LDH, mean ± S.D. [3] [IU] | Suppression rate ([4]; 50 mg/kg oral) [%] | Suppression rate ([4]; 100 mg/kg oral, * p < 0.01) [%] | Suppression rate ([4]; 200 mg/kg oral, * p < 0.01) [%] | UD50 ([4]; oral, hydrochloric acid/ethanol, 95% C.L. 83.4~94.3, 60 min) [mg/kg] | Suppression rate ([5]; 50 mg/kg oral) [%] | Suppression rate ([5]; 100 mg/kg oral) [%] | Suppression rate ([5]; 200 mg/kg oral) [%] | UD50 ([5]; oral, water-immersion constraint stress, 95% C.L. 97.9~113, 420 min) [mg/kg] | LD50 (mice) | deaths (mice; doses up to 2,500 mg/kg) | anti-hepatitis, liver-function improving and anti-ulcer activities [6] | suppression against increases in activities of ALT, AST and LDH ([6]; Tables 1 to 3, as compared with the control compounds currently in use) |
| --- | --- | --- | --- | --- | --- | --- | --- | --- | --- | --- | --- | --- | --- | --- | --- | --- | --- | --- | --- | --- |
| Zinc-[bis(2-aminoethanesulfonic acid).bis(sodium 2-aminoethanesulfonate)] [FTZ] | 4265.7 ± 1347.6 | 3215.8 ± 967.7 | 15865 ± 5300.8 | 1107.1 ± 168.8 | 345.7 ± 72.8 | 1429.5 ± 327.8 | 1025.8 ± 268.4 | 1875.3 ± 437.1 | 32.1 | 53.5 | 74.9 | 88.7 | 26.4 | 56.1 | 64.5 | 105 | > 2,500 mg/kg | did not cause any animal to die | exhibits anti-hepatitis, liver-function improving and anti-ulcer activities | significantly enhanced suppression |
| CC1(C)[C@@H](O[C@H]2O[C@H](C(=O)O)[C@@H](O)[C@H](O)[C@H]2O[C@@H]2O[C@H](C(=O)O)[C@@H](O)[C@H](O)[C@H]2O)CC[C@]2(C)[C@H]3C(=O)C=C4[C@@H]5C[C@@](C)(C(=O)O)CC[C@]5(C)CC[C@@]4(C)[C@]3(C)CC[C@@H]12 [Glycyrrhizin] | 8339.3 ± 2420.1 | 8949.6 ± 4530.0 | 26457 ± 11086 | 1089.7 ± 210.2 | 267.8 ± 78.1 | 1764.8 ± 437.1 | 1358.4 ± 324.1 | 2163.1 ± 562.7 | – | – | – | – | – | – | – | – | – | – | – | – |
| N[C@@H](CCC(=O)N[C@@H](CS)C(=O)NCC(=O)O)C(=O)O [Glutathione] | 19423.1 ± 1042.3 | 9643.6 ± 3874.3 | 32392 ± 7906 | 1176.1 ± 123.7 | 321.7 ± 94.4 | 2257.8 ± 581.6 | 1759.4 ± 394.3 | 2541.1 ± 563.4 | – | – | – | – | – | – | – | – | – | – | – | – |
| CC(S)C(=O)NCC(=O)O (centres unmarked) [Thiopronine] | 4941.2 ± 1537.7 | 4884.5 ± 1097.5 | 26789 ± 9753 | 1426.9 ± 199.5 | 956.8 ± 219.5 | 1826.5 ± 479.5 | 1623.7 ± 432.8 | 2583.7 ± 634.1 | – | – | – | – | – | – | – | – | – | – | – | – |
